According to patent publication US11679107B2 (Eisai R&D Management Co., Ltd., priority 2018, dated 2023):
Where two headings read alike, the source gives them in different places.

Experiments:
[1] = biological target: T1, SF3b complexes (Homo sapiens, UniProt O75533+Q7RTV0); test: Scintillation proximity assay (SPA) with [3H]-labelled pladienolide probe; assay type: binding; details: SF3B1 (WT); geometric mean; read-out: SPA-ATS GMean IC50 (nM) SF3B1 (WT)
T1 construct: endogenous in cells; host or cells: Nuclear extracts; A HeLa S3 extract preparation is described for the in vitro splicing assay
Outline: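 SF3b complexes captured from nuclear extracts on anti-SF3B1 antibody SPA beads; test compounds pre-incubated 30 min before 2.5 nM [3H]-pladienolide probe added, then 30 min incubation. Bound probe read by scintillation; values from non-linear regression of concentration–response curves.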

[2] = tested on: Ad2 variant pre-mRNAs spliced in HeLa S3 nuclear extracts; test: In vitro splicing assay (IVS), RT-qPCR of spliced product; assay type: biochemical; details: for IC50: geometric mean; for Ratio Ad2.1/2.2: ratio of IVS IC50 Ad2.1 to Ad2.2
Outline: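 Read-out is one-step TaqMan RT-qPCR of spliced Ad2 mRNA with Ftz as reference, normalized to DMSO and fit by non-linear regression. Reactions held HeLa S3 nuclear extract, 2 ng Ad2-derived pre-mRNA and test compound, with 15 min preincubation. Splicing was started with ATP-containing activation buffer and run 90 min at 30 °C.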

[3] = tested on: NCI-H1568 cells (high MCL1); test: Cell proliferation and viability, CellTiter-Glo, 72 hours; assay type: cell-based; details: for GI50: geometric mean
Outline: (§1)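 RPMI-1640/10% FBS (Panc: + insulin, FBS 15%); 11-pt half-log dose, ~10 μM-100 pM, 0.1% DMSO; 37° C, 5% CO2; ATP luminescence read; % inhibition vs T0 and vehicle, −100% cidal to 100% uninhibited growth.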

[4] = tested on: Panc 05.04 cells (SF3b K700E mutant); test: as above; assay type: cell-based; details: for GI50: geometric mean
Outline: as §1

[5] = Ad2.1 pre-mRNA substrate, read-out: qPCR-IVS-ATS GMean IC50 (nM) Ad2.1
[6] = Ad2.2 pre-mRNA substrate, read-out: qPCR-IVS-ATS GMean IC50 (nM) Ad2.2
[7] = NCI-H1568, read-out: CTGlo-ATS GMean GI50 (nM) 72 h NCIH1568.1, NCIH1568.1 cells, 72 h
[8] = NCIH1568.1 cells, 72 h, −100% cidal, 0% static, 100% maximal growth
[9] = PANC0504.1 cells, 72 h, −100% cidal, 0% static, 100% maximal growth
[10] = Panc 05.04, read-out: CTGlo-ATS GMean GI50 (nM) 72 h PANC0504.1, PANC0504.1 cells, 72 h
[11] = 72 h, NCIH1568.1, -100% = cidal, 0% = static, 100% = uninhibited growth
[12] = NCI-H1568, read-out: CTGlo-ATS GMean GI50 (nM) 72 h NCIH1568.1, 72 h, NCIH1568.1
[13] = 72 h, PANC0504.1, -100% = cidal, 0% = static, 100% = uninhibited growth
[14] = Panc 05.04, read-out: CTGlo-ATS GMean GI50 (nM) 72 h PANC0504.1, 72 h, PANC0504.1

With C/C(=C\c1cc(F)cc(N2CCN(S(=O)(=O)CCN3CCOCC3)CC2)c1)[C@H]1OC(=O)C[C@H](O)CC[C@H](C)[C@@H](OC(=O)N2CCN(C)CC2)/C=C/[C@@H]1C [Compound 73] the IC50 [1] was 2.42 nM, the IC50 [2, 5] was 13.1 nM and the IC50 [2, 6] was 13.6 nM. For the same compound, the GI50 [3, 7] was 5.85 nM, the “CTGlo-ATS Mean MinResponse % 72 h NCIH1568.1” value [3, 8] was −76.720% and the “CTGlo-ATS Mean MinResponse % 72 h PANC0504.1” value [4, 9] was −79.201%. It also gave a GI50 [4, 10] of 6.91 nM.
In the case of C/C(=C\c1cccc(S(=O)(=O)N2CCCC2C)c1)[C@H]1OC(=O)CC(O)CCC(C)[C@@H](OC(=O)N2CCN(C)CC2)/C=C/[C@@H]1C (stereo in doubt) [Compound 200, [(2S,3S,4E,6R,7R,10S)-10-hydroxy-3,7-dimethyl-2-[(E)-1-[3-[(2S)-2-methylpyrrolidin-1-yl]sulfonylphenyl]prop-1-en-2-yl]-12-oxo-1-oxacyclododec-4-en-6-yl] 4-methylpiperazine-1-carboxylate], the IC50 [1] is reported as 8.03 nM, the IC50 [2, 5] is reported as 8050 nM and the IC50 [2, 6] is reported as 27 nM. For the same compound, the “Ratio Ad2.1/2.2” value [2] was 297.600, the “CTGlo-ATS Mean MinResponse % 72 h NCIH1568.1” value [3, 11] was −51.281% and the GI50 [3, 12] was 24.2 nM. For the same compound, the “CTGlo-ATS Mean MinResponse % 72 h PANC0504.1” value [4, 13] was −94.085% and the GI50 [4, 14] was 17.4 nM.
For CNS(=O)(=O)c1cccc(/C=C(\C)[C@H]2OC(=O)CC(O)CCC(C)[C@@H](OC(=O)N3CCN(C)CC3)/C=C/[C@@H]2C)c1 (stereo in doubt) [Compound 212, [(2S,3S,4E,6R,7R,10S)-10-hydroxy-3,7-dimethyl-2-[(E)-1-[3-(methylsulfamoyl)phenyl]prop-1-en-2-yl]-12-oxo-1-oxacyclododec-4-en-6-yl] 4-methylpiperazine-1-carboxylate], the IC50 [1] was 8.79 nM, the IC50 [2, 5] was > 25000 nM and the IC50 [2, 6] was 93.8 nM. For the same compound, the “Ratio Ad2.1/2.2” value [2] was 266.536, the “CTGlo-ATS Mean MinResponse % 72 h NCIH1568.1” value [3, 11] was −49.302% and the GI50 [3, 12] was 129 nM. For the same compound, the “CTGlo-ATS Mean MinResponse % 72 h PANC0504.1” value [4, 13] was −59.089% and the GI50 [4, 14] was 60.2 nM.
C/C(=C\c1cccc2c1c(C)nn2C)[C@H]1OC(=O)C[C@H](O)CC[C@H](C)[C@@H](OC(=O)N2CCN(C)CC2)/C=C/[C@@H]1C [Compound 97] was tested, and the IC50 [1] was 240 nM, the IC50 [2, 5] was > 25000 nM and the IC50 [2, 6] was 2890 nM. For the same compound, the GI50 [3, 7] was 4370 nM, the “CTGlo-ATS Mean MinResponse % 72 h NCIH1568.1” value [3, 8] was 11.801% and the “CTGlo-ATS Mean MinResponse % 72 h PANC0504.1” value [4, 9] was 46.987%. The GI50 [4, 10] was 9140 nM.
For COc1ccc(S(=O)(=O)N2CCN(c3cc(F)cc(/C=C(\C)[C@H]4OC(=O)C[C@H](O)CC[C@H](C)[C@@H](OC(=O)N5CCN(C)CC5)/C=C/[C@@H]4C)c3)CC2)cc1 [Compound 110], the IC50 [1] was 42.1 nM, the IC50 [2, 5] was 142 nM and the IC50 [2, 6] was 63.2 nM. For the same compound, the GI50 [3, 7] was 40.9 nM, the “CTGlo-ATS Mean MinResponse % 72 h NCIH1568.1” value [3, 8] was −93.755% and the “CTGlo-ATS Mean MinResponse % 72 h PANC0504.1” value [4, 9] was −74.667%. For the same compound, the GI50 [4, 10] was 41.8 nM.
Compound C/C(=C\c1cc(F)cc(N2CCN(C(=O)Cn3cccn3)CC2)c1)[C@H]1OC(=O)C[C@H](O)CC[C@H](C)[C@@H](OC(=O)N2CCNCC2)/C=C/[C@@H]1C [Compound 235, [(2S,3S,4E,6R,7S,10R)-2-[(E)-1-[3-fluoro-5-[4-(2-pyrazol-1-ylacetyl)piperazin-1-yl]phenyl]prop-1-en-2-yl]-10-hydroxy-3,7-dimethyl-12-oxo-1-oxacyclododec-4-en-6-yl] piperazine-1-carboxylate] has an IC50 [1] of 5.56 nM, an IC50 [2, 5] of 16 nM and an IC50 [2, 6] of 15.1 nM. For the same compound, the “Ratio Ad2.1/2.2” value [2] was 1.057, the “CTGlo-ATS Mean MinResponse % 72 h NCIH1568.1” value [3, 11] was −84.925% and the GI50 ([3]; NCI-H1568, 72 h, read-out: CTGlo-ATS GMean GI50 (nM) 72 h NCIH1568.1, 72 h, NCIH1568.1) was 2.35 nM. For the same compound, the “CTGlo-ATS Mean MinResponse % 72 h PANC0504.1” value [4, 13] was −84.459% and the GI50 ([4]; Panc 05.04, 72 h, read-out: CTGlo-ATS GMean GI50 (nM) 72 h PANC0504.1, 72 h, PANC0504.1) was 1.94 nM.
C/C(=C\c1cc(F)cc(N2CCOCC2)c1)[C@H]1OC(=O)C[C@H](O)CC[C@H](C)[C@@H](OC(=O)N2CCN3CCCC3C2)/C=C/[C@@H]1C (stereo partly shown) [Compound 82] showed an IC50 [1] of 3.79 nM, an IC50 [2, 5] of 68.6 nM and an IC50 [2, 6] of 28.2 nM. For the same compound, the GI50 [3, 7] was 12.2 nM, the “CTGlo-ATS Mean MinResponse % 72 h NCIH1568.1” value [3, 8] was −60.656% and the “CTGlo-ATS Mean MinResponse % 72 h PANC0504.1” value [4, 9] was −88.044%. The GI50 [4, 10] was 8.74 nM.
